Patent US7714009B2, “Nitrogen-containing fused heterocyclic compounds” (Takeda Pharmaceutical Company Limited, priority 2003, dated 2010)

Biological target: T1, human CRF receptor (Homo sapiens, UniProt P34998)
T1 construct: expressed in transfected cells; host or cells: CHO cells (membrane fraction)
T1 sequence (P34998 24-415): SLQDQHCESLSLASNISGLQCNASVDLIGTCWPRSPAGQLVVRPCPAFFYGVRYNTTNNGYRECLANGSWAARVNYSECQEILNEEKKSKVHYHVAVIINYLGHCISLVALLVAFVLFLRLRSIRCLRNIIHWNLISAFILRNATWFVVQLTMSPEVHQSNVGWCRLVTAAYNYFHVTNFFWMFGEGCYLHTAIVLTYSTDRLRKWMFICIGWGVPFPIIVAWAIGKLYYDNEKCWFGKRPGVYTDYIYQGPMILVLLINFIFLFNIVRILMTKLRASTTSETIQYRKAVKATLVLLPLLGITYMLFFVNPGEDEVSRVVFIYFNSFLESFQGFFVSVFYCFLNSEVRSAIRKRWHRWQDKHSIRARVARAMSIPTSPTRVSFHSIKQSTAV
Assay: Measurement of Corticotropin-Releasing Factor (CRF) Binding Inhibitory Rate
Details: 1000 nM test compound; human CRF receptor expressing CHO cellular membrane fraction; 50 pM 125I-CRF; room temperature 1 hour
Experimental: Measurement of Corticotropin-Releasing Factor (CRF) Binding Inhibitory Rate
A receptor binding experiment was carried out using a human CRF receptor expressing CHO cellular membrane fraction and sheep CRF, [^125I]-tyr^0(^125I-CRF). 1000 nM of a test compound was incubated with 1 μg of human CRF receptor expressing CHO cellular membrane fraction and 50 pM of ^125I-CRF in a binding assay buffer (50 mM Tris-HCl, 5 mM EDTA, 10 mM MgCl2, 0.05% CHAPS, 0.1% BSA, 0.5 mM PMSF, […] pepstatin, 20 μg/ml leupeptin, pH 7.5). In addition, for measuring nonspecific binding (NSB), 0.1 μM unlabelled human Urocortin was incubated with 1 μg of human CRF receptor expressing CHO cellular membrane fraction and 50 pM of ^125I-CRF in a binding assay buffer. After a binding reaction was carried out at room temperature for 1 hour, the membrane was entrapped on a glass filter (UniFilter plate GF-C/Perkin Elmer) by suction filtration using a cell harvester (Perkin Elmer), and washed with ice-cooled 50 mM Tris-HCl (pH 7.5). After drying the glass filter, a liquid scintillation cocktail (Microscinti 0, Perkin Elmer) was added, and the radioactivity of ^125I-CRF remaining on a glass filter was measured using Topcount (Perkin Elmer).
(TB−SB)/(TB−NSB)×100 (SB: radioactivity when a compound is added, TB: maximum binding radioactivity, NSB: nonspecific binding radioactivity) was calculated to obtain a binding inhibitory rate under the presence of 1,000 nM or 100 nM of each test substances.

Structure (SMILES) | inhibition at 1 µM [%]
CCCN(CCC)c1cccc2nc(Nc3c(C)cc(C)cc3C)n(C)c12 [Example 26, N^2-Mesityl-1-methyl-N^7,N^7-dipropyl-1H-benzimidazole-2,7-diamine] | > 80
CCCN(CCC)c1cccc2nc(Nc3c(C)cc(C)cc3Cl)n(C)c12 [Example 42, N^2-(2-chloro-4,6-dimethylphenyl)-1-methyl-N^7,N^7-dipropyl-1H-benzimidazole-2,7-diamine] | > 80
CCCN(CCC)c1cccc2nc(Nc3cc(OC)c(OC)cc3C)n(C)c12 [Example 46, N^2-(4,5-dimethoxy-2-methylphenyl)-1-methyl-N^7,N^7-dipropyl-1H-benzimidazole-2,7-diamine] | > 80
COc1ccc(N(c2cccc3nc(Nc4c(C)cc(Cl)cc4OC)n(C)c23)C(C)C)cc1 [Example 145, N^2-(4-chloro-2-methoxy-6-methylphenyl)-N^7-isopropyl-N^7-(4-methoxyphenyl)-1-methyl-1H-benzimidazole-2,7-diamine] | > 80
CCC1CCCCN1c1cccc2nc(Nc3c(C)cc(Br)cc3OC)n(C)c12 (centres unmarked) [Example 183, N-(4-Bromo-2-methoxy-6-methylphenyl)-7-(2-ethyl-1-piperidinyl)-1-methyl-1H-benzimidazol-2-amine] | > 80
